Measured values published in paper PMC6362038, “Secondary structures and cell-penetrating abilities of arginine-rich peptide foldamers” (Scientific Reports, 2019).
Numbered stars: 1 amine (or outer) side, 2 acyl side, 3 side chain; on linkers, the order of the positions; unused ones are H or OH. Square brackets hold non-standard residues; d marks the D form. Peptide text beside a SMILES is read from it. * marks the point of attachment. 5FAM = O=C1OC2(c3ccc(O)cc3Oc3cc(O)ccc32)c2ccc(C(=O)*)cc21; X1 = CO[C@H]1CC(N[*:1])(C(=O)[*:2])C[C@@H]1OC; αMeL = CC(C)C[C@](C)(N)C(=O)O; Ac5c = NC1(C(=O)O)CCCC1

Experiments:
[1] = Circular dichroism, R value of secondary structure; type: physicochemical; settings: CD, peptide 24 µM
Description: The conformations of peptides were analyzed by circular dichroism (CD) in pH 7.3 4-(2-hydroxyethyl)-1-piperazineethanesulfonic acid (HEPES) buffer (Fig. 3a), 40% 2,2,2-trifluoroethanol (TFE)/pH 7.3 HEPES buffer (Fig. 3b), and 75% TFE/pH 7.3 HEPES buffer (Fig. 3c). Negative maxima at 205–209 nm (π → π*) and 222–225 nm (n → π*) were diagnostic of a right-handed (P) helical structure[31]–[33]. The ratio of R (θπ → π*/θn → π*) has been used as a parameter to distinguish an α-helical structure from a 3_10-helical structure (i.e., R ≈ 1: α-helix; R < 0.4: 3_10-helix) (Table S1)[34],[35]. Helical content (helicity) of peptides was estimated from the intensity of θn → π* values. A negative maximum at 195–200 nm (π → π*) and a weak positive maximum at 217 nm (n → π*) were diagnostic of a random coil structure. […] By adding TFE to HEPES buffer, (αMe)Leu peptide formed a complete right-handed (P) helical structure in a mixture of α- and 3_10-helices (R = 0.57 and 0.56 in Figs 3b and […], respectively). The dominant structures of Ac5c and Leu peptides changed by increased the rate of TFE to eventually be α-/3_10-helices (R = 0.52) and 3_10-helix (R = 0.30), respectively (Fig. 3c). […] Cbz-[L-Leu-L-Leu-(S,S)-Ac5c^dOM]3-OMe was reported to form a right-handed (P) helical structure in 50% TFE/H2O[37]. L-Leu might contribute to stabilization of the peptide helical secondary structure as well as (S,S)-Ac5c^dOM. Destabilization of the peptide helical secondary structure by L-Arg might be stronger than stabilization of it by (S,S)-Ac5c^dOM. Taken together with the results of CD spectra (Fig. 3), in which helicity of peptides was estimated from the intensity of θn → π* values, stability in the helicity of the peptides in the current study was as follows: (αMe)Leupeptide>Ac5cpeptide≈Leupeptide>Ac5c^dOMpeptide≈Argpeptide.
Figure 3 CD spectra of peptides in (a) HEPES buffer, (b) 40% TFE/HEPES buffer, and (c) 75% TFE/HEPES buffer. Peptide concentration: 24 µM.
Optical rotation [α]^rtD was measured using a Jasco DIP-370 polarimeter (JASCO, Tokyo, Japan) using a 0.5 dm cell. Infrared (IR) spectra were recorded using a Shimadzu IR Affinity-1 spectrometer (Shimadzu Corporation, Kyoto, Japan) for conventional measurement (KBr). CD spectra were recorded using a Jasco J-720W spectropolarimeter (JASCO) with a 1.0 mm path length cell. ^1H NMR (400 MHz) and ^13C NMR (100 MHz) spectra were determined using a JEOL AL 400 spectrometer (JEOL Ltd, Tokyo, Japan). Fast atom bombardment (FAB)-MS was measured using a JEOL JMS-700N (JEOL). MALDI-TOF-MS spectra were recorded using a Bruker Ultrax spectrometer (Bruker Daltonics, Fermont, CA). Piperidine was purchased from Tokyo Chemical Industry Co., Ltd. (Tokyo, Japan). Fmoc-L-Arg(Pbf)-OH, Fmoc-Gly-OH, Fmoc-L-Leu-OH, and CLEAR-Amide resin were purchased from the Peptide Institute., Inc. (Osaka, Japan). Fmoc-(S)-(αMe)Leu-OH was obtained from Nagase & Co., Ltd. (Kyoto, Japan). Fmoc-Ac5c-OH was purchased from Watanabe Chemical Industries, Ltd. (Hiroshima, Japan). HATU, HBTU, HOAt, and HOBt were from AAPPTec (Louisville, KY). COMU was from Novabiochem (Tokyo, Japan). CF and Dulbecco’s modified Eagle’s medium (DMEM) were obtained from Sigma-Aldrich Co. (St. Louis, MO). diisopropylethylamine (DIPEA) and heparin were purchased from Wako Pure Chemicals Co., Inc. (Osaka, Japan). Diethyl ether was from Kanto Chemical Co., Inc. (Tokyo, Japan). Trifluoroacetic acid (TFA) was obtained from Nacalai Tesque, Co., Inc. (Kyoto, Japan). Hoechst 33342 and a Cell counting kit-8 were purchased from Dojindo Laboratories (Kumamoto, Japan). LysoTracker Red was from Molecular Probes (Eugene, OR).
Table S1. R values (qπ → π*/qn → π*) of synthetic peptides.
R value (qπ → π*/qn → π* )
HEPES 40% TFE/HEPES 75% TFE/HEPES

[2] = Resistance to protease digestion with trypsin; type: in vitro ADME; settings: 10 µM peptide in 2.5 × 10^−6 w/v% trypsin/PBS, 37 °C, RP-HPLC, α-CHCA internal standard, read-out: intact peptide after incubation with trypsin
From the text: Next, we examined the stability of peptides against protease digestion using trypsin (Fig. 4a) and pronase (Fig. 4b). One of the advantages of peptide foldamers containing dAAs is their high resistance to degradation by proteases[38]–[40]. Trypsin is a serine protease that cleaves amide bonds at the C terminus of cationic amino acids such as Arg and lysine. Pronase is a non-specific protease mixture produced in the culture supernatant of Streptomyces griseus. Ac5c, Ac5c^dOM, (αMe)Leu, and Leu peptides were incubated with trypsin or pronase for 1, 2, and 4 h, and then rate of intact peptide was evaluated by RP-HPLC using α-cyano-4-hydroxycinnamic acid (α-CHCA) as an internal standard. Leu peptide was promptly degraded by both trypsin and pronase, and reached 0% intact peptide after 4 h incubation in a similar manner to Arg peptide reported previously[24],[25]. On the other hand, approximately 80% of Ac5c, Ac5c^dOM, and (αMe)Leu peptides remained intact even after 4 h incubation. Introduction of dAAs into peptides markedly elevated resistance to protease digestion, whether or not peptides formed stable helical structures. In other words, peptides composed of only natural α-amino acids were easily degraded by proteases independently of their peptide secondary structures.
One-hundred microliters of peptide solution (10 µM) in 2.5 × 10^−6 w/v% trypsin or pronase/phosphate buffer saline (PBS) was incubated at 37 °C for 0, 1, 2, and 4 h. After each incubation time, 250 µL of 1% TFA/PBS solution was added to inactivate the proteases, and 50 µL of 1/2 diluted saturated α-CHCA solution was added as an internal standard, followed by HPLC analysis, which was performed using the above-mentioned conditions.

[3] = pH 7.3 HEPES buffer, R ≈ 1 α-helix, R < 0.4 3_10-helix

Structure (SMILES)	R value (θπ → π*/θn → π*) ([1]; 40% TFE/pH 7.3 HEPES buffer)	R value (θπ → π*/θn → π*) ([1]; 75% TFE/pH 7.3 HEPES buffer)	R value (θπ → π*/θn → π*) [1, 3]	remaining at 4 h, 10 µM [2] [%]
N=C(N)NCCC[C@H](NC(=O)CNC(=O)c1ccc2c(c1)C(=O)OC21c2ccc(O)cc2Oc2cc(O)ccc21)C(=O)N[C@@H](CCCNC(=N)N)C(=O)NC1(C(=O)N[C@@H](CCCNC(=N)N)C(=O)N[C@@H](CCCNC(=N)N)C(=O)NC2(C(=O)N[C@@H](CCCNC(=N)N)C(=O)N[C@@H](CCCNC(=N)N)C(=O)NC3(C(N)=O)CCCC3)CCCC2)CCCC1 [Ac5c peptide] (5FAM-GRR[Ac5c]RR[Ac5c]RR[Ac5c]-NH2)	0.61	0.52	No significant maxima	~80
CO[C@H]1CC(NC(=O)[C@H](CCCNC(=N)N)NC(=O)[C@H](CCCNC(=N)N)NC(=O)C2(NC(=O)[C@H](CCCNC(=N)N)NC(=O)[C@H](CCCNC(=N)N)NC(=O)C3(NC(=O)[C@H](CCCNC(=N)N)NC(=O)[C@H](CCCNC(=N)N)NC(=O)CNC(=O)c4ccc5c(c4)C(=O)OC54c5ccc(O)cc5Oc5cc(O)ccc54)C[C@H](OC)[C@@H](OC)C3)C[C@H](OC)[C@@H](OC)C2)(C(N)=O)C[C@@H]1OC [Ac5c^dOM peptide] (5FAM-GRR[X1]RR[X1]RR[X1]-NH2)	No significant maxima	No significant maxima	No significant maxima	~80
CC(C)C[C@](C)(NC(=O)[C@H](CCCNC(=N)N)NC(=O)[C@H](CCCNC(=N)N)NC(=O)[C@](C)(CC(C)C)NC(=O)[C@H](CCCNC(=N)N)NC(=O)[C@H](CCCNC(=N)N)NC(=O)[C@](C)(CC(C)C)NC(=O)[C@H](CCCNC(=N)N)NC(=O)[C@H](CCCNC(=N)N)NC(=O)CNC(=O)c1ccc2c(c1)C(=O)OC21c2ccc(O)cc2Oc2cc(O)ccc21)C(N)=O [(αMe)Leu peptide] (5FAM-GRR[αMeL]RR[αMeL]RR[αMeL]-NH2)	0.57	0.56	0.45	~80
